# Calls of active or inactive are those of the source.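 Rule for the calls: active = fluorescence span above 25 thousand equivalent fluorochrome units, or a 33 microM versus DMSO difference score above 25; inactive = the rest.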
# Tested on: S. cerevisiae s288c autofluorescence, flow cytometry 520 nm, 3 h
# Assay: compound green fluorescence in S. cerevisiae cells – flow cytometry, strain s288c, KU SAR set 2, multiplex, artefact control for yeast TOR pathway modulator project, dose response (AID 504463)
# Conditions: at 33.3 µM; stronger effect = higher value
row,Compound,fluorescence change (kMESF span)
1,CNc1nc(N)cc(Nc2cccc(Cl)c2)n1,0.06 (inactive)
2,CNc1nc(NC2CCCCC2)c([N+](=O)[O-])c(N2CCOCC2)n1,0.14 (inactive)
3,COC(=O)c1cccc(-c2cc(Nc3cc(C)[nH]n3)nc(NCc3ccccc3)n2)c1,0.06 (inactive)
4,Cc1cc(Nc2cc(-c3ccccc3)nc(NCc3ccccc3)n2)n[nH]1,0.06 (inactive)
5,CNc1nc(N)c(C(=O)c2ccc(C)c(C)c2)c(Nc2cccc(Cl)c2)n1,0.07 (inactive)
6,CNc1nc(N)cc(Nc2ccccc2F)n1,0 (inactive)
7,CCOC(=O)c1c(N)nc(NC)nc1Nc1cccc(F)c1,0.13 (inactive)
8,Cc1cc(Nc2cc(Nc3ccccc3)nc(NCc3ccccc3)n2)n[nH]1,0.07 (inactive)
9,CCNc1nc(NC2CCCCC2)c([N+](=O)[O-])c(N2CCOCC2)n1,0 (inactive)
10,COc1ccccc1-c1cc(Nc2cc(C)[nH]n2)nc(NCc2ccccc2)n1,0.06 (inactive)
11,O=[N+]([O-])c1c(NC2CCCCC2)nc(NCc2ccccc2)nc1N1CCOCC1,0 (inactive)
12,CNc1nc(N)cc(Oc2cccc(Cl)c2)n1,0.06 (inactive)
13,COc1cccc(-c2cc(Nc3cc(C)[nH]n3)nc(NCc3ccccc3)n2)c1,0.13 (inactive)

# Other lines, results leading:
row,fluorescence change (kMESF span),Compound
1,0.49 (inactive),CCNc1nc(N)c([N+](=O)[O-])c(Nc2cccc(Cl)c2)n1
2,0.07 (inactive),CNc1nc(N)c([N+](=O)[O-])c(Nc2ccccc2F)n1
3,0.07 (inactive),CNc1nc(N)c([N+](=O)[O-])c(Nc2cccc(Br)c2)n1
4,0.07 (inactive),CNc1nc(N)c([N+](=O)[O-])c(Nc2ccccc2Br)n1
5,0.07 (inactive),CNc1nc(NC)c([N+](=O)[O-])c(Nc2cccc(Cl)c2)n1
6,0.07 (inactive),CNc1nc(N)c([N+](=O)[O-])c(Nc2cccc(Oc3ccccc3)c2)n1
7,0.14 (inactive),CNc1nc(N)c([N+](=O)[O-])c(Nc2cccc(OC)c2)n1

# Reference: PubChem BioAssay AID504463 (NMMLSC, 2011)
